Experimental data taken from patent publication US8093406B2, “Cyclic sulfones with aminobenzyl substitution useful as BACE inhibitors” (Novartis AG, priority 2008, dated 2012).
pIC50: −log10 of the molar value. Counter-ions that a name gives are not always drawn.

target: T1, Human BACE (Homo sapiens, UniProt P56817); assay: Test 1: Inhibition of Human BACE; assay type: biochemical; settings: not given
T1 construct: Recombinant BACE (extracellular domain, expressed in baculovirus and purified using standard methods); made in house
T1 sequence (P56817 46-457 limits assumed): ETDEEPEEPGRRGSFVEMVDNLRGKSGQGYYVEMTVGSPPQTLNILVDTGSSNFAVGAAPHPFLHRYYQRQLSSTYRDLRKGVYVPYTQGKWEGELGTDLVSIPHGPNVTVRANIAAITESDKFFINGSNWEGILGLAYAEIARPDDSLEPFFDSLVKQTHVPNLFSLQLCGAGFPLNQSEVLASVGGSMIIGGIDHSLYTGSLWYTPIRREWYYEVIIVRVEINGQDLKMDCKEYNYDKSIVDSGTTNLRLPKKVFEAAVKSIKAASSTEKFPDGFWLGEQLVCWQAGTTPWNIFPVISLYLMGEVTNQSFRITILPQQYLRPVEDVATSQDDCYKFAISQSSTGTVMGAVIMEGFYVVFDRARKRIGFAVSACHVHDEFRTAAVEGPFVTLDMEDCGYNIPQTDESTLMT
Experimental: Test 1: Inhibition of Human BACE
Recombinant BACE (extracellular domain, expressed in baculovirus and purified using standard methods) at 0.1 to 10 nM concentrations is incubated with the test compound at various concentrations for 1 hour at room temperature in 10 to 100 mM acetate buffer, pH 4.5, containing 0.1% CHAPS. […] IC50 values are calculated from percentage of inhibition of BACE-activity as a function of the test compound concentration.

| pIC50 | Structure (SMILES) |
| --- | --- |
| 8.40 | COC[C@@H](Oc1cc(C[C@@H]2C[S@@+]([O-])C[C@H](NCc3cccc(C(C)(C)C)c3)C2=O)cc(F)c1N)C(F)(F)F [Example 64, (1R,3S,5R)-3-[4-Amino-3-fluoro-5-((R)-2,2,2-trifluoro-1-methoxymethyl-ethoxy)-benzyl]-5-(3-tert-butyl-benzylamino)-1-oxo-tetrahydro-thiopyran-4-one trifluoroacetate] |

same assay, conditions: Test 1; recombinant BACE extracellular domain, acetate buffer pH 4.5, 1 hour incubation at room temperature, fluorescence-quenched APP-derived peptide substrate; read-out: Bace IC50

| Structure (SMILES) | pIC50 |
| --- | --- |
| C[C@H](Oc1cc(C[C@@H]2C[S@@+]([O-])C[C@H](NCc3ccc4c(c3)C(C)(C)OC4)[C@H]2O)cc(F)c1N)C(F)(F)F [Example 52, (1R,3S,4S,5R)-3-[4-Amino-3-fluoro-5-((S)-2,2,2-trifluoro-1-methyl-ethoxy)-benzyl]-5-[(3,3-dimethyl-1,3-dihydro-isobenzofuran-5-ylmethyl)-amino]-1-oxo-hexa-hydro-1lambda*4*-thiopyran-4-ol] | 6.93 |
| COCC(Oc1cc(CC2C[S+]([O-])CC(NCc3cccc(OC(F)F)c3)C2O)cc(F)c1N)C(F)(F)F (stereo not shown) [Example 62] | 6.48 |
| C[Si](C)(C)c1cccc(CNC2C[S+]([O-])CC(Cc3cc(F)c(N)c(OCC(F)(F)F)c3)C2O)c1 (stereo not shown) [Example 63] | 6.93 |

Further lines, results first:

| pIC50 | Structure (SMILES) |
| --- | --- |
| 7.82 | COC[C@@H](Oc1cc(C[C@@H]2C[S@@+]([O-])C[C@H](NCc3cc(OC)cc(C(C)(C)C)c3)[C@H]2O)cc(F)c1N)C(F)(F)F [Example 49, (1R,3S,4S,5R)-3-[4-Amino-3-fluoro-5-((R)-2,2,2-trifluoro-1-methoxymethyl-ethoxy)-benzyl]-5-(3-tert-butyl-5-methoxy-benzylamino)-1-oxo-tetrahydro-thiopyran-4-ol dihydrochloride] |
| 5.62 | COC[C@@H](Oc1cc(C[C@@H]2C[S@@+]([O-])C[C@H](NCc3ccc4c(c3)OC(C)(C)C4)[C@H]2O)cc(F)c1N)C(F)(F)F [Example 50, (1R,3S,4S,5R)-3-[4-Amino-3-fluoro-5-((R)-2,2,2-trifluoro-1-methoxymethyl-ethoxy)-benzyl]-5-[(2,2-dimethyl-2,3-dihydro-benzofuran-6-ylmethyl)-amino]-1-oxo-tetrahydro-thiopyran-4-ol dihydrochloride] |
| 6.42 | COCC(Oc1cc(CC2C[S+]([O-])CC(NCc3cccc(OC)c3)C2O)cc(F)c1N)C(F)(F)F (stereo not shown) [Example 59] |
